{
  "source": "patent US10543183B2",
  "about": "“Treatment and diagnosis of melanoma” (The Rockefeller University, priority 2012, dated 2020)",
  "key": {"[1]": {"test_system": "ApoE expression in human melanoma cells", "test": "ApoE mRNA expression by qRT-PCR in melanoma cells", "format": "cell-based", "conditions": "MeWo cells; 500 nM, 1 μM, or 2 μM for 48 hours", "description": "Total RNA was extracted from various cell lines using the miRvana kit (AM1560, Applied Biosystems, Austin, Tex.). The expression levels of mature miRNAs were quantified using the Taqman miRNA expression assay (4427975-0002228, Applied Biosystems). RNU44 was used as an endogenous control for normalization. For mRNA expression analyses, 600 ng of total RNA was reverse transcribed using the cDNA First-Strand Synthesis Kit (18080-051, Invitrogen), and roughly 200 ng of the resulting cDNA was then mixed with SYBR green PCR Master Mix (4309155, Applied Biosystems) and the appropriate primers. Each reaction was performed in quadruplicate, and mRNA expression was quantified by performing real-time PCR amplification using an ABI Prism 7900HT Real-Time PCR System (Applied Biosystems). GAPDH was used as an endogenous control for normalization. The following primers were used: […]\nRNA was extracted from whole cell lysates using the Total RNA Purification Kit (17200, Norgen, Thorold, Canada). 600 ng of total RNA was then reverse transcribed into cDNA using the cDNA First-Strand Synthesis Kit (18080-051, Invitrogen), and quantitative real-time PCR amplification was performed as previously described (Pencheva et al., 2012) using an ABI Prism 7900HT Real-Time PCR System (Applied Biosystems, Austin, Tex.). Each PCR reaction was carried out in quadruplicates. Gene expression was normalized to GAPDH, which was used as an endogenous control.\nFor every sample, 600 ng of RNA was reverse transcribed into cDNA using the cDNA First-Strand Synthesis kit (Invitrogen). Approximately 200 ng of cDNA was mixed with SYBR® green PCR Master Mix and the corresponding forward and reverse primers specific for detection of human ApoE. Each reaction was carried out in quadruplicates, and ApoE mRNA expression levels were measured by quantitative real-time PCR amplification using an ABI Prism 7900HT Real-Time PCR System (Applied Biosystems). The relative ApoE expression was determined using the ΔΔCt method. GAPDH was used as an endogenous control for normalization purposes."}, "melanoma cells": {"test_system": "melanoma cells", "test": "cell proliferation and viability assay", "format": "cell-based, human", "conditions": "MeWo, HT-144, SK-Mel-334.2; 1 μM, 5 days", "description": "To determine the effects of miR-199a or miR-1908 over-expression and combinatorial LNA-induced miRNA inhibition on cell proliferation, 2.5×10^4 cells were seeded in triplicate in 6-well plates, and viable cells were counted after 5 days. […] Viable cells were counted after 8, 24, 48, 72, and 120 hours.\nAfter 5 days, the number of viable and dead cells was counted using the trypan blue dye (72-57-1, Sigma-Aldrich), which selectively labels dead cells."}, "[2]": {"test_system": "endothelial cells (HUVEC) recruited by human melanoma cells", "test": "trans-well endothelial recruitment assay", "format": "cell-based", "conditions": "MeWo, HT-144, SK-Mel-2, SK-Mel-334.2; 1 μM for 72 hours", "description": "5×10^4 cancer cells were seeded into 24-well plates approximately 24 hours prior to the start of the assay. HUVEC's were grown to 80% confluency and serum starved in EGM-2 media supplemented with 0.2% FBS for 16 hours. HUVEC's were then pulsed with Cell Tracker Red CMTPX dye (C34552, Invitrogen) for 45 minutes. Meanwhile, cancer cells were washed with PBS, 0.5 mL of 0.2% FBS EGM-2 media was added to each well, and a 3.0 μm HTS Fluoroblock insert (351151, BD Falcon, San Jose, Calif.) was placed into each well. 1×10^5 HUVEC's, resuspended in 0.5 mL of starvation media, were seeded into each trans-well insert, and the recruitment assay was allowed to proceed for 16-18 hours at 37° C. For neutralization antibody and/or recombinant protein experiments, antibody/protein was then added to each well at the appropriate concentration as indicated in the figures: 40 μg/mL anti-ApoE 1D7, 40 μg/mL anti-IgG, 100 μM rhApoE3, and 100 μM BSA. Upon completion of the assay, the inserts were processed and analyzed as described for the matrigel invasion assay above (See Matrigel Invasion Assay).\nThe endothelial recruitment assay was carried out as previously described (Pencheva et al., 2012; Png et al., 2012). Melanoma cells were treated with DMSO, GW3965, T0901317, or Bexarotene at 1 μM for 56 hours, after which 5×10^4 cells were seeded in a 24-well plate in the presence of each drug and allowed to attach for 16 hours prior to starting the assay. HUVEC cells were serum-starved overnight in EGM-2 media containing 0.2% FBS. The following day, 1×10^5 HUVEC cells were seeded into a 3.0 μm HTS Fluoroblock trans-well migration insert (351151, BD Falcon, San Jose, Calif.) fitted into each well containing cancer cells at the bottom. The HUVEC cells were allowed to migrate towards the cancer cells for 20 hours at 37° C., after which the inserts were processed as previously described (Pencheva et al., 2012). For ApoE antibody neutralization experiments, 40 μg/mL 1D7 anti-ApoE blocking antibody (Heart Institute, University of Ottawa, Ottawa, Canada) or 40 μg/mL anti-IgG control antibody (AB-108-C, R&D Systems, Minneapolis, Minn.) was added to each trans-well insert at the start of the assay.\nSubsequently, 5×10^4 cancer cells were seeded into 24-well plates in the presence of each drug or DMSO and allowed to attach for 16 hours prior to starting the assay. Human umbilical vein endothelial cells (HUVEC cells) were serum-starved in 0.2% FBS-containing media overnight. The following day, 1×10^5 HUVEC cells were seeded into a 3.0 μm HTS Fluoroblock insert (351151, BD Falcon) fitted into each well containing the cancer cells at the bottom. The HUVEC cells were allowed to migrate towards the cancer cells for 20 hours, after which the inserts were washed in PBS, fixed in 4% PFA, labeled with DAPI, and mounted on slides. The basal side of each insert was imaged using an inverted fluorescence microscope (Zeiss Axiovert 40 CFL) at 5× magnification, and the number of DAPI-positive cells was quantified using ImageJ."}, "[3]": {"test_system": "human melanoma cells (MeWo, MeWo-LM2, HT-144, SK-Mel-2, SK-Mel-334.2)", "test": "trans-well matrigel cell invasion assay, melanoma cells", "format": "cell-based", "conditions": "MeWo, HT-144, SK-Mel-2, SK-Mel-334.2; 1 μM for 72 hours", "description": "Cancer cells were serum-starved in 0.2% FBS DMEM-based media for 12 hours. Trans-well invasion chambers (354480, BD Biosciences, Bedford, Mass.) were pre-equilibrated prior to beginning the assay by adding 0.5 mL of starvation media to the top and bottom chambers. After 30 minutes, the media in the top chamber was removed, and 0.5 mL of media containing 1×10^5 cancer cells was added into each matrigel-coated trans-well insert and incubated at 37° C. for 24 hours. For neutralization antibody and/or recombinant protein experiments, antibody/recombinant protein was added to each well at the start of the assay at the following concentrations as indicated in the figures: 5-40 μg/mL anti-ApoE 1D7 (Heart Institute, University of Ottawa), 5-40 μg/mL anti-IgG (AB-108-C, R&D Systems, Minneapolis, Minn.), 100 μM recombinant human ApoE3 (4696, BioVision, Mountain View, Calif.), and 100 μM BSA (A2153, Sigma-Aldrich). Upon completion of the assay, matrigel-coated inserts were washed with PBS, the cells at the top side of each insert were scraped off, and the inserts were fixed in 4% paraformaldehyde for 15 minutes. The inserts were then cut out and mounted onto slides using VectaShield mounting medium containing DAPI (H-1000, Vector Laboratories, Burlingame, Calif.). The basal side of each insert was imaged using an inverted fluorescence microscope (Zeiss Axiovert 40 CFL) at 5× magnification, taking three representative images for each insert. The number of invaded cells was quantified using ImageJ (NIH).\nThe cell invasion assay was performed as previously described in detail (Pencheva et al., 2012) using a trans-well matrigel invasion chamber system (354480, BD Biosciences). In brief, various melanoma cells were cultured in the presence of DMSO, GW3965, T0901317, or Bexarotene at 1 μM for 56 hours, after which melanoma cells were switched to starvation media (0.2% FBS) for 16 hours in the presence of each drug. Following starvation, cells were seeded into matrigel-coated trans-well inserts, and the invasion assay was allowed to proceed for 24 hours at 37° C. For ApoE antibody neutralization experiments, 40 μg/mL 1D7 anti-ApoE blocking antibody (Heart Institute, University of Ottawa, Ottawa, Canada) or 40 μg/mL anti-IgG control antibody (AB-108-C, R&D Systems, Minneapolis, Minn.) was added to each trans-well insert at the start of the assay.\nThe cells were then serum starved for 16 hours in 0.2% FBS media in the presence of each corresponding drug or DMSO. Following serum starvation, the cells were subjected to the trans-well invasion assay using a matrigel invasion chamber system (354480, BD Biosciences). Invasion chambers were pre-equilibrated prior to the assay by adding 0.5 mL of starvation media to the top and bottom wells. Meanwhile, cancer cells were trypsinized and viable cells were counted using trypan blue. Cancer cells were then resuspended at a concentration of 2×10^5 cells/1 mL starvation media, and 0.5 mL of cell suspension, containing 1×10^5 cells, was seeded into each trans-well. The invasion assay was allowed to proceed for 24 hours at 37° C. […] Following fixation, the inserts were washed in PBS, cut out, and mounted onto slides using VectaShield mounting medium containing DAPI nuclear stain (H-1000, Vector Laboratories). The basal side of each insert was imaged using an inverted fluorescence microscope (Zeiss Axiovert 40 CFL) at 5× magnification, and the number of DAPI-positive cells was quantified using ImageJ."}, "[4]": {"test_system": "B16F10 mouse melanoma cells", "test": "subcutaneous B16F10 tumor growth in mice", "format": "in vivo", "conditions": "50 mg/kg, i.p., daily"}, "[5]": {"test_system": "B16F10 mouse melanoma cells", "test": "subcutaneous B16F10 tumor growth in mice", "format": "in vivo", "conditions": "50 mg/kg, i.p., daily", "description": "First, the cells were treated with 500 μg/mL DTIC for one week. Following this initial DTIC treatment, the remaining (˜10%) viable cells were allowed to recover for one week, after which 750 μg/mL of DTIC was added to the cell media for 5 days. Subsequent to this high-dose treatment, the cells were allowed to recover in the presence of low-dose DTIC (100 μg/mL) for one week. The cells were then continuously cultured in cell media containing 200 μg/mL DTIC for at least one month prior to grafting the cells into mice. DTIC was added to fresh cancer cell media every 3 days. […] DTIC was dissolved in the presence of citric acid (1:1 by weight) in water and administered daily by intraperitoneal injection.", "remark": "listed apart in the source"}},
  "data": [
    {"smiles": "Fc1ccc(-c2c3cccc(C(F)(F)F)c3nn2Cc2ccc(F)cc2Cl)cc1", "note": "[LXR-623 3]", "values": [
      {"measurement": "ApoE expression induction", "setting": "[1]", "value": "varied degrees of ApoE expression induction"}
    ]},
    {"smiles": "C=C(c1ccc(C(=O)O)cc1)c1cc2c(cc1C)C(C)(C)CCC2(C)C", "note": "[bexarotene, reference compound]", "values": [
      {"measurement": "cell proliferation or cell viability rates", "setting": "melanoma cells", "value": "did not affect"},
      {"measurement": "ability of melanoma cells to recruit endothelial cells", "setting": "[2]", "value": "did not significantly affect"},
      {"measurement": "ability of melanoma cells to invade through matrigel", "setting": "[3]", "value": "suppressed invasion only in half of the melanoma lines tested"}
    ]},
    {"smiles": "CN(C)/N=N/c1[nH]cnc1C(N)=O", "note": "[dacarbazine, reference compound]", "values": [
      {"measurement": "growth of DTIC-sensitive parental B16F10 line", "setting": "[4]", "value": "significantly suppressed"},
      {"measurement": "tumor growth by B16F10 DTIC-resistant cells", "setting": "[5]", "value": "did not affect"}
    ]}
  ]
}
